Source: ChEMBL document CHEMBL1201862, “PubChem BioAssay data set” (2004)
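Following 48 hours of exposure in 96-well plates, responses at five concentrations were used to interpolate endpoints linearly. GI50: concentration for 50% inhibition of growth.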 Active and inactive are the calls of the source. Rule as the data show it: active = GI50 up to about 1.1 µM and inactive = higher.

How the values were obtained:
Test in all cases: growth of human tumour cells (NCI), 48 h
COLO 205 = test system: COLO 205
HCT-116 = test system: HCT-116
HL-60 = test system: HL-60
HOP-62 = test system: HOP-62
HOP-92 = test system: HOP-92
Hs-578T = test system: Hs-578T
IGROV-1 = test system: IGROV-1
MDA-MB-231 = test system: MDA-MB-231
NCI-H226 = test system: NCI-H226
NCI/ADR-RES = test system: NCI/ADR-RES
OVCAR-4 = test system: OVCAR-4
OVCAR-8 = test system: OVCAR-8
RPMI-8226 = test system: RPMI-8226
RXF 393 = test system: RXF 393
SF-268 = test system: SF-268
SN12C = test system: SN12C
SNB-19 = test system: SNB-19
SR = test system: SR
SW-620 = test system: SW-620
U-251 = test system: U-251

| SMILES | GI50 (COLO 205) | GI50 (HCT-116) | GI50 (HL-60) | GI50 (HOP-62) | GI50 (HOP-92) | GI50 (Hs-578T) | GI50 (IGROV-1) | GI50 (MDA-MB-231) | GI50 (NCI-H226) | GI50 (NCI/ADR-RES) | GI50 (OVCAR-4) | GI50 (OVCAR-8) | GI50 (RPMI-8226) | GI50 (RXF 393) | GI50 (SF-268) | GI50 (SN12C) | GI50 (SNB-19) | GI50 (SR) | GI50 (SW-620) | GI50 (U-251) |
| --- | --- | --- | --- | --- | --- | --- | --- | --- | --- | --- | --- | --- | --- | --- | --- | --- | --- | --- | --- | --- |
| N#Cc1c(C#N)c(SSc2c(C#N)c(C#N)c(N)n2-c2ccc(F)cc2)n(-c2ccc(F)cc2)c1N | 1.95 µM (inactive) | 1.9 µM (inactive) | 2 µM (inactive) | 17.8 µM (inactive) | 2.96 µM (inactive) | 25.8 µM (inactive) | 16.7 µM (inactive) | 19.6 µM (inactive) | 20.8 µM (inactive) | 24.3 µM (inactive) | 2.77 µM (inactive) | 6.55 µM (inactive) | 2.37 µM (inactive) | 3.01 µM (inactive) | 17.5 µM (inactive) | 16.6 µM (inactive) | 21.6 µM (inactive) | 0.59 µM (active) | 2.25 µM (inactive) | 20.2 µM (inactive) |
| Cc1cccc(C2NC(=O)c3ccccc3N2)c1 (stereo not given) | 4.19 µM (inactive) | 3.28 µM (inactive) | 0.802 µM (active) | 6.03 µM (inactive) | > 58.9 µM (inactive) | 8.43 µM (inactive) | 4.62 µM (inactive) | 25.8 µM (inactive) | 5.35 µM (inactive) | 4.67 µM (inactive) | > 49.1 µM (inactive) | 6.1 µM (inactive) | 3.2 µM (inactive) | 4.44 µM (inactive) | 11.3 µM (inactive) | 5.87 µM (inactive) | 11 µM (inactive) | 0.791 µM (active) | 5.62 µM (inactive) | 4.95 µM (inactive) |
| Cc1nc2ccc(NCCN(C)C)c3c(=O)c4ccccc4n1c23 | 1.17 µM (inactive) | 0.851 µM (active) | 3.37 µM (inactive) | 1.51 µM (inactive) | 2.25 µM (inactive) | 2.55 µM (inactive) | 1.75 µM (inactive) | 1.05 µM (active) | 1.56 µM (inactive) | 1.06 µM (active) | 1.83 µM (inactive) | 0.914 µM (active) | 2.04 µM (inactive) | 10.5 µM (inactive) | 3.48 µM (inactive) | 2.31 µM (inactive) | 4.19 µM (inactive) | 0.439 µM (active) | 0.601 µM (active) | 2.22 µM (inactive) |
| CCC1(c2ccc(N)cc2)CCC(=O)NC1=O (stereo not given) [AMINOGLUTETHIMIDE] | 1470 µM (inactive) | 2620 µM (inactive) | 1280 µM (inactive) | 1050 µM (inactive) | 1030 µM (inactive) | 1520 µM (inactive) | 3450 µM (inactive) | 2610 µM (inactive) | 1880 µM (inactive) | 1680 µM (inactive) | 1970 µM (inactive) | 3270 µM (inactive) | 2490 µM (inactive) | 1330 µM (inactive) | 2860 µM (inactive) | 3400 µM (inactive) | 3350 µM (inactive) | > 3820 µM (inactive) | 3520 µM (inactive) | 2050 µM (inactive) |
| Cn1c(=O)sc2cc(C(=S)N3CCOCC3)ccc21 | > 80.7 µM (inactive) | > 100 µM (inactive) | 24.7 µM (inactive) | > 100 µM (inactive) | 9.89 µM (inactive) | > 41 µM (inactive) | > 51.5 µM (inactive) | > 100 µM (inactive) | > 46.9 µM (inactive) | > 73.1 µM (inactive) | > 100 µM (inactive) | > 47.1 µM (inactive) | > 79.8 µM (inactive) | > 100 µM (inactive) | > 100 µM (inactive) | > 100 µM (inactive) | > 100 µM (inactive) | 69.7 µM (inactive) | > 100 µM (inactive) | > 59.7 µM (inactive) |
| CNC(=O)OCc1nc(SC)n(C)c1COC(=O)NC | 146 µM (inactive) | 167 µM (inactive) | 55.2 µM (inactive) | 38.5 µM (inactive) | 111 µM (inactive) | 195 µM (inactive) | 175 µM (inactive) | 187 µM (inactive) | 83.8 µM (inactive) | 204 µM (inactive) | 129 µM (inactive) | 182 µM (inactive) | 117 µM (inactive) | 50.8 µM (inactive) | 119 µM (inactive) | 103 µM (inactive) | 233 µM (inactive) | 71.4 µM (inactive) | 172 µM (inactive) | 166 µM (inactive) |
| CC(=O)NC1C(OCc2ccccc2)OC(CO)C(O)C1OCC(=O)NC(C)C(=O)NC(CCC(=O)NCCCCCNc1c2ccccc2nc2cccc([N+](=O)[O-])c12)C(N)=O (stereo not given) | < 0.0001 µM (active) | < 0.0001 µM (active) | < 0.0001 µM (active) | < 0.0001 µM (active) | < 0.0001 µM (active) | < 0.01 µM (active) | 0.00102 µM (active) | < 0.0001 µM (active) | 0.000202 µM (active) | 0.000327 µM (active) | 0.00074 µM (active) | < 0.0001 µM (active) | < 0.0001 µM (active) | < 0.01 µM (active) | < 0.0001 µM (active) | < 0.0001 µM (active) | < 0.0001 µM (active) | 0.00217 µM (active) | < 0.0001 µM (active) | < 0.0001 µM (active) |
